Measured values published in ChEMBL document CHEMBL1135340, “Efficient liquid-phase synthesis of 2'-hydroxychalcones” (Bioorg Med Chem Lett, 2002).

Test system: MCF7
Assay: Cytotoxic concentration against MCF-7 cells was determined
Type: functional, cell-based
Details: Homo sapiens

O=C(/C=C/c1ccc(Br)cc1)c1ccccc1O
IC50: 12.3 µM
